Reference: the NIST ThermoML archive (doi:10.1016/j.tca.2006.01.013)

Assay: xn = mol fraction of the nth substance listed
Settings: 101 kPa, Liquid, Vibrating tube method

NCCN [ethane-1,2-diamine] + O
mass density [kg/m3]
Settings | 288.15 K | 293.15 K | 298.15 K | 303.15 K | 308.15 K | 313.15 K | 318.15 K
x2 = 0.0401 | 905.79 | 901.13 | 896.45 | 891.76 | 887.06 | 882.34 | 877.6
x2 = 0.0797 | 909.79 | 905.15 | 900.49 | 895.82 | 891.14 | 886.43 | 881.71
x2 = 0.1199 | 914.18 | 909.56 | 904.92 | 900.27 | 895.6 | 890.91 | 886.2
x2 = 0.1598 | 918.88 | 914.28 | 909.66 | 905.03 | 900.38 | 895.71 | 891.01
x2 = 0.2003 | 923.88 | 919.29 | 914.69 | 910.07 | 905.43 | 900.77 | 896.09
x2 = 0.25 | 930.08 | 925.52 | 920.93 | 916.33 | 911.71 | 907.07 | 902.4
x2 = 0.2999 | 936.78 | 932.23 | 927.67 | 923.08 | 918.47 | 913.84 | 909.18
x2 = 0.3497 | 944.11 | 939.57 | 935.02 | 930.44 | 925.84 | 921.21 | 916.56
x2 = 0.3998 | 951.74 | 947.2 | 942.65 | 938.08 | 933.48 | 928.86 | 924.21
x2 = 0.4504 | 959.71 | 955.18 | 950.64 | 946.07 | 941.48 | 936.86 | 932.22
x2 = 0.5001 | 967.93 | 963.41 | 958.87 | 954.3 | 949.72 | 945.1 | 940.46
x2 = 0.5499 | 976.43 | 971.92 | 967.39 | 962.83 | 958.26 | 953.66 | 949.04
x2 = 0.5998 | 984.56 | 980.1 | 975.61 | 971.09 | 966.55 | 961.99 | 957.4
x2 = 0.6499 | 991.92 | 987.54 | 983.14 | 978.72 | 974.26 | 969.77 | 965.25
x2 = 0.7004 | 998.03 | 993.83 | 989.6 | 985.34 | 981.04 | 976.7 | 972.33
x2 = 0.7499 | 1001.68 | 997.76 | 993.81 | 989.81 | 985.76 | 981.67 | 977.53
x2 = 0.8 | 1002.5 | 999 | 995.45 | 991.83 | 988.16 | 984.43 | 980.63
x2 = 0.84 | 1001.38 | 998.31 | 995.17 | 991.96 | 988.67 | 985.31 | 981.87
x2 = 0.88 | 999.21 | 996.66 | 994.01 | 991.27 | 988.42 | 985.47 | 982.43
x2 = 0.9193 | 997.06 | 995.08 | 992.96 | 990.71 | 988.32 | 985.81 | 983.17
x2 = 0.9599 | 996.39 | 995.01 | 993.42 | 991.65 | 989.7 | 987.59 | 985.32
